System: T cells
Assay: T-cell viability after incubation with compound C
Format: cell-based, human
Details: 10 μM dorsomorphin, 6-24 hours
Experimental: T cells were incubated with 10 μM dorsomorphin (Sigma Aldrich) for a period of 6-24 hours. The T cells were subsequently used for either motility assays or functional profiling using TIMING assays.

Compound: c1cc(-c2cnn3cc(-c4ccc(OCCN5CCCCC5)cc4)cnc23)ccn1 [CC, dorsomorphin]
- impact on T-cell viability: did not have an impact

— patent publication US20220195389A1, “METHODS OF IMPROVING THE LONGEVITY OF IMMUNE CELLS” (University of Houston System, priority 2019, published 2022)
